Legend:
CDK2/Cyclin E = CDK2/Cyclin E (Homo sapiens, UniProt P24941); test: CDK2/Cyclin E kinase flashplate assay (33P incorporation into biotinylated Rb peptide); assay type: biochemical; conditions: CDK2/Cyclin E 20 nM, ATP 1 μM, Rb peptide 10 μM, 30 minute at 30° C.
Protocol: Functional Measurements to Ascertain IC50 Values:
A 96-well streptavidin-coated flashplate is used to assay potency of compounds according to formula (I) against CDK2/Cyclin E kinase. To carry out the assay, biotinylated-Rb peptide substrate (Biotin-[…]-OH) is solubilized at 1 mM in kinase buffer (Hepes 50 mM, NaCl 1 mM, MgCl2 5 mM pH 7.5) as a stock solution conserved at −20° C. in aliquots of 110 μl. The day of the experiment, an aliquot of this solution is thawed and diluted to 14.3 μM in kinase buffer, containing 1 mM dithithreitol (DTT) added in the buffer extemporarily.
70 μl of this solution is added in each well of the flashplate in order to achieve a final concentration of 10 μM (100 μl reactionnal volume). […] 10 μl of each of these solutions (or 10 μl of buffer+DTT for controls) are transferred to the testplate wells in order to achieve 10 μM, 3.33 μM, 1.11 μM, 0.37 μM, 0.12 μM, 0.04 μM and 0.01 μM as final concentrations, 1% DMSO (vol/vol). In each well, 10 μl of a solution of a mix of ^33PγATP/ATP are added in order to achieve 1 μM final concentration and a total of 1 μCi. The kinase reaction is initiated by addition of 10 μl of a solution at 200 nM of CDK2/Cyclin E in kinase buffer+DTT (or buffer+DTT for blanks) in order to achieve 20 nM final concentration. After addition of each reagent, the test-plate is shaked. The plates are incubated 30 minute at 30° C. with a shaking at 650 rpm. At the end of the incubation, the plates are washed 3 times with 300 μl of PBS (without calcium and magnesium) per well. The incorporation of ^33P to the peptide is measured by scintillation counting.

IC50 (CDK2/Cyclin E) [µM]	melting point	SMILES
0.124	–	COC(=O)c1ccc2nc(-c3cc(-c4ccncc4)n[nH]c3=O)[nH]c2c1 [Example 1, Methyl 2-(3-oxo-6-pyridin-4-yl-2,3-dihydropyridazin-4-yl)-1H-benzimidazole-5-carboxylate]
0.026	–	O=c1[nH]nc(-c2ccncc2)cc1-c1nc2ccc(Cl)cc2[nH]1 [Example 5, 4-(6-Chloro-1H-benzimidazol-2-yl)-6-pyridin-4-yl-2H-pyridazin-3-one]
0.214	–	O=c1[nH]nc(-c2ccncc2)cc1-c1nc2ccc(C(F)(F)F)cc2[nH]1 [Example 6, 4-(6-Trifluoromethyl-1H-benzimidazol-2-yl)-6-pyridin-4-yl-2H-pyridazin-3-one]
–	> 30 °C (dec.)	CN1CCN(CCCNC(=O)c2ccc3nc(-c4cc(-c5ccncc5)n[nH]c4=O)[nH]c3c2)CC1 [Example 9, 2-(3-Oxo-6-pyridin-4-yl-2,3-dihydropyridazin-4-yl)-1H-benzimidazole-5-carboxylic acid [3-(4-methylpiperazin-1-yl)propyl]amide]
